Legend:
[1] = molecular target: T1, E. coli enolase (Escherichia coli, UniProt P0A6P9); experiment: enolase assay, % inhibition at […]; assay type: biochemical; details: read-out: % inhibition at 20 μM
Target sequence in this assay (P0A6P9 2-432): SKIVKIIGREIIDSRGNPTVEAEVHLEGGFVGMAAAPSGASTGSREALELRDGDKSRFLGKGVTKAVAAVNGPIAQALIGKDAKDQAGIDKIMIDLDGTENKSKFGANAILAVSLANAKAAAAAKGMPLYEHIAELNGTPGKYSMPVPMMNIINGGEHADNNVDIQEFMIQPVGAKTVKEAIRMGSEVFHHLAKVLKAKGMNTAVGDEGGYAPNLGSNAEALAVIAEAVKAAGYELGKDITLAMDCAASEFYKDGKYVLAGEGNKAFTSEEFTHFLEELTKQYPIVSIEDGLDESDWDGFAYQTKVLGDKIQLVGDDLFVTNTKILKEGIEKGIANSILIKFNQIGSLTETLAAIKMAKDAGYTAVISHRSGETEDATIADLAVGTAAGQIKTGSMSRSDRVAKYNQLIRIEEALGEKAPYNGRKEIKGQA

[2] = molecular target: T1, E. coli enolase; experiment: X-ray crystal structure, […] Å; assay type: binding
Target sequence in this assay (P0A6P9 whole entry): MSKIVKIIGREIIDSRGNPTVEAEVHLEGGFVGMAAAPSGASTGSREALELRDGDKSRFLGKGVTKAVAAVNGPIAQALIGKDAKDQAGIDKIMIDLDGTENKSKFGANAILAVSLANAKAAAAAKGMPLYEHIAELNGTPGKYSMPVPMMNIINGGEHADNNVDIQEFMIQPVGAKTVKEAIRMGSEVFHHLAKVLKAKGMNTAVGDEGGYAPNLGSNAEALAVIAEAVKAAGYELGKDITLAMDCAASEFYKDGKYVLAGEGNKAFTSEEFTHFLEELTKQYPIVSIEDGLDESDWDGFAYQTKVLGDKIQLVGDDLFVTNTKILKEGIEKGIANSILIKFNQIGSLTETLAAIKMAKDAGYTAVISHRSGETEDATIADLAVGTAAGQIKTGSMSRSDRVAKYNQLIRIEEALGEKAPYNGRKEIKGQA

## NCCOCCOCCNC(=O)Cc1ccc(Nc2nc(NCc3ccc(F)cc3)nc(NCC3CCCCC3)n2)cc1 [compound 41, ENOblock]
[1]
  inhibition at 20 µM: 41%

## O=C(O)C(CO)OP(=O)(O)O (centres unmarked) [2-PGA]
[2]
  X-ray crystal structure, 1.8 Å: we observe a fully occupied active site with 2-PGA and two Mg-ions bound (PDB 6BFy)
